Source: patent US20090274636A1, “TOOTH ENAMEL DISSOLUTION INHIBITOR” (priority 2006, published 2009)

Experiment: Phosphorus dissolution from sintered hydroxyapatite (tooth enamel model) in 2 wt. % citric acid, ICP-AES
Settings: for Phosphorus Dissolution Rate (%): 2 wt. % citric acid, pH 2.5, shaken two days, negative control = 100%
Description: In order to evaluate the inhibitory activity of subject substances on the dissolution (decalcification) of tooth enamel, the following tests were conducted using sintered hydroxyapatite as a tooth enamel model.
Thus, 10 ml of test solution was prepared. The test solution (10 ml) and a piece (720 mg, 10×10×2 mm) of sintered hydroxyapatite (APP-100; PENTAX Corp.) were put into a 15-ml polypropylene tube and the tube was sealed. The tube was shaken horizontally at about 120 times per minute for two days. After the shaking, the amount of phosphorus dissolved from the sintered hydroxyapatite was measured in each test solution by high-frequency inductively coupled plasma atomic emission spectrophotometry (ICP-AES). Another test was conducted as a negative control in the same manner as above, using a 2 wt. % citric acid solution (adjusted to pH 2.5 with sodium hydrate) as a test solution. Still another test was conducted as a positive control in the same manner as above, using CaCl2 (10 mM) as a subject substance. Taking the amount of phosphorus dissolved in the negative control as 100%, the phosphorus dissolution rate (%) was calculated for each subject substance.

Compound	Phosphorus Dissolution Rate (%) (subject substance 10 mM)	Phosphorus Dissolution Rate (%) (subject substance 0.2 wt. %)	Phosphorus Dissolution Rate (%) (subject substance 0.5 wt. %)	inhibitory effect on phosphorus dissolution from the sintered hydroxyapatite due to citric acid (in words) (summary of Table 1 results)
[Ca+2].[Cl-].[Cl-] [CaCl2, reference compound]	75.0%			
OC[C@H]1O[C@@H]2O[C@H]3[C@H](O)[C@@H](O)[C@@H](O[C@H]4[C@H](O)[C@@H](O)[C@@H](O[C@H]5[C@H](O)[C@@H](O)[C@@H](O[C@H]6[C@H](O)[C@@H](O)[C@@H](O[C@H]7[C@H](O)[C@@H](O)[C@@H](O[C@H]8[C@H](O)[C@@H](O)[C@@H](O[C@H]1[C@H](O)[C@H]2O)O[C@@H]8CO)O[C@@H]7CO)O[C@@H]6CO)O[C@@H]5CO)O[C@@H]4CO)O[C@@H]3CO [β-cyclodextrin]		98.6%	79.7%	effectively suppressed phosphorus dissolution
